Measured values taken from article PMC10901353, “Identification of a potent and selective LAPTc inhibitor by RapidFire-Mass Spectrometry, with antichagasic activity” (PLOS Neglected Tropical Diseases, 2024).
“And” between values parts separate entries of the source, which are not always exact repeats. Equal entries are not always repeated. Where two headings read alike, the source gives them in different places.

How the values were obtained:
[1] = tested on: PfA-M17 (M17 LAP from Plasmodium falciparum); details: cited from earlier work
[2] = target: T1, LAPTc (acidic M17 leucyl-aminopeptidase from T. cruzi) (Trypanosoma cruzi, UniProt V5BWE3); experiment: High-throughput single point screening for LAPTc inhibitors by RapidFire-MS; format: biochemical; details: primary screen, 30 μM, single replicate; read-out: Percent Inhibition
T1 sequence (V5BWE3 entry or part of it): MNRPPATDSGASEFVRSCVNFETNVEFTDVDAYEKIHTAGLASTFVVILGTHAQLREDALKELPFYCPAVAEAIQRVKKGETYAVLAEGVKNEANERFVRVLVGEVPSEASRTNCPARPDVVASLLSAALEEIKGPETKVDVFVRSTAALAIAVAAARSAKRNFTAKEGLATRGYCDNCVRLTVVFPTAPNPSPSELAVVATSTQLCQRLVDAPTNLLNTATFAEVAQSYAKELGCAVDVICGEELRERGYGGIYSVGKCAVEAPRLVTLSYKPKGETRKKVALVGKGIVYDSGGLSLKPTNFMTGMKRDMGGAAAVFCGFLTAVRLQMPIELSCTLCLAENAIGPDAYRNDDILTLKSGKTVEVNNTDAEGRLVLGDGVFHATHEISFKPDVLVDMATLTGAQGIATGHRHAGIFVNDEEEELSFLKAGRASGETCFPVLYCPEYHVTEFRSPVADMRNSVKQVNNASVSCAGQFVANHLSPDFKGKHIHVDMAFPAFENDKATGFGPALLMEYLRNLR
Description: (§1) This assay was previously described. The assay was performed in 384-well clear F-bottom polypropylene plates with a final reaction volume of 15 μL. The reaction mixture contained 7.5 μL LAPTc in 50 mM Tris-HCl, pH 7.5, 0.005% NP-40 and 7.5 μL LSTVIVR peptide substrate (Cambridge Research Biochemicals, Billingham, UK) in the same buffer was added to start the reaction. The reaction was performed at room temperature for 40 min and then stopped with 85 μL 1% formic acid containing 0.15 mg/mL STVIVR* internal standard (Cambridge Research Biochemicals, Billingham, UK).
Single point screening of a library of 3329 compounds was performed in 384-well clear plates (Greiner 781101) at room temperature. Test compounds (45 nL in DMSO) were transferred to assay plates by an ECHO 550 acoustic dispenser (Labcyte). LAPTc was tested at 3 nM with 150 μM (approximately the value of the apparent Michaelis-Menten constant -appKM- [16]) LSTVIVR peptide substrate in a 40 min reaction. Before addition of substrate, LAPTc was preincubated with 45 nL compounds or DMSO for 15 min. Compounds, dissolved in DMSO, were tested at 30 μM. Controls without compound (the same volume of DMSO, 0% inhibitory effect) and without enzyme and compound (100% inhibitory effect) were prepared. The experiment was performed without replicates. The remaining experimental conditions were maintained as previously described. Data were processed and analysed through ActivityBase XE (IDBS). The selection criterion for hits in this single point screen was percent inhibition larger than the mean plus three standard deviations. All primary screening data are available in ChEMBL (see Data Availability statement).

[3] = target: T1, LAPTc (acidic M17 leucyl-aminopeptidase from T. cruzi); experiment: Dose-response studies for LAPTc inhibition by RapidFire-MS; format: biochemical; details: for Emax: read-out: Maximum Effect; for Hit Confirmation: whether primary screen hit confirmed in potency experiment
Description: as §1
To generate half-maximum inhibitory concentration (IC50) data for LAPTc, 10-point dose-response curves with 100 μM as highest concentration and 1:2 dilution in DMSO (0.195–100 μM range) were prepared in 384 well plates. All other experimental conditions were as described above. All IC50 curve fitting was performed by four-parameter logistic dose-response curve fit using ActivityBase XE (IDBS). At least three replicates were generated for each hit compound.

[4] = tested on: intracellular T. cruzi amastigotes; experiment: T. cruzi intracellular assay (high-content imaging, infected Vero cells); format: cell-based, Trypanosoma cruzi; set-up: Max Effect (T. cruzi): unit not given here; details: for EC50 / Emax: Trypanosoma cruzi, Vero; for Emax: read-out: Max Effect (T. cruzi)
Description: T. cruzi parasite, TcI strain Silvio X10/7 subclone A1 [34] was maintained in culture as previously described. Parasites were maintained as amastigotes by passaging on a weekly basis in Vero cells. Culture maintenance infections were carried out at an MOI (multiplicity of infection) of 1.5.
(§2) This assay was performed as described with the only modification that treatment was 96 h instead of 72 h. Briefly, Vero cells were infected overnight with tissue culture derived T. cruzi trypomastigotes in T225 tissue culture flasks (MOI 5). Any remaining free trypomastigotes were washed away with serum free MEM and the infected Vero cells were harvested by trypsinisation. Compounds (250 nL in DMSO) were dispensed using LabCyte ECHO (Beckman Coulter Life Sciences, USA) into each well of Corning black flat bottomed 384-well plates (Corning, USA). […] The infected Vero cells were then plated into the plates containing the compounds, at 4,000 cells per well in MEM media with 1% FCS. After 96 h incubation at 37°C in presence of 5% CO2, the plates were fixed with 4% formaldehyde for 20 min at room temperature and stained with 5 μg/mL Hoechst 33342. The plates were imaged on a Perkin Elmer Operetta high-content imaging system using a 20× objective. Images were analyzed using the Columbus system (Perkin Elmer). The algorithm first identified the Vero nuclei followed by demarcation of the cytoplasm and identification of intracellular amastigotes. This algorithm reported percent infected Vero cell and total number of Vero cells. All potency determinations were carried out in at least three independent replicates and are reported as pEC50 +/- standard deviation. pEC50 = -log(EC50[M]).

[5] = Cytotoxicity against infected Vero host cells in T. cruzi intracellular assay; format: cell-based, African green monkey; set-up: Max Effect (Vero): unit not given here; details: African green monkey, Vero cells infected with T. cruzi; infected Vero host cells, 96 h; read-out: pCC50 (Vero) +/- StDev (converted)
Description: (§3) Briefly, these cells were maintained at 37°C and 5% CO2 in MEM supplemented with 10% FCS, sub-culturing every 2–3 days at a ratio of 1:5 after 5 min treatment with Trypsin-EDTA (Gibco).
as §2, with “After 96 h incubation at 37°C in presence of 5% CO2, the plates were fixed with 4% formaldehyde for 20 min at room temperature and stained with 5 μg/mL Hoechst 33342.” left out

[6] = tested on: Vero cells; experiment: as above; format: cell-based, African green monkey; set-up: Max Effect (Vero): unit not given here; details: for Max Effect (Vero) / pEC50 (Vero): individual replicates
Description: as §3
as §2, with “After 96 h incubation at 37°C in presence of 5% CO2, the plates were fixed with 4% formaldehyde for 20 min at room temperature and stained with 5 μg/mL Hoechst 33342.” left out

[7] = Cytotoxicity assay on human HepG2 cells (resazurin); format: cell-based; details: human, HepG2 cells, 72 h
[8] = tested on: HepG2 cells; experiment: as above; format: cell-based; details: for Max Effect (HepG2) / pEC50 (HepG2): individual replicates
[9] = Initial hit confirmation, single replicate
[10] = Initial hit confirmation, single replicate, read-out: pIC50 (converted)
[11] = Replicate data generation, individual replicates
[12] = Replicate data generation, individual replicates, read-out: pIC50 (converted)
[13] = average of four independent replicates, read-out: pIC50 +/- StDev (LAPTc) (converted)
[14] = 96 h, four independent experiments, read-out: pEC50 (T. cruzi) +/- StDev (converted)
[15] = individual replicates, read-out: pEC50 (T. cruzi) (converted)
[16] = two independent experiments, read-out: pCC50 (HepG2) (converted)

NC(CCc1ccccc1)P(=O)(O)CC(Cc1ccccc1)C(=O)O (centres unmarked) [Co4]
Ki [1]: 0.013 µM

O=C(NO)C(NC(=O)C12CC3CC(CC(C3)C1)C2)c1ccc(-c2cc(F)c(F)c(F)c2)cc1 (centres unmarked) [Compound 6k]
Ki [1]: 0.0289 µM

O=C(NCC(=O)N1CCc2ccccc2C1)C1CCCCC1 [Compound 9]
inhibition at 30 µM [2]: 49%
Hill Slope [3, 9]: 1.7
Emax [3, 9]: 54%
IC50 [3, 10]: 15.8 µM
Hill Slope [3, 11]: 0.749 and 0.7 and 0.655
Maximum Effect [3, 11]: 67% and 63%
Emax [3, 11]: 64%
IC50 [3, 12]: 39.8 µM and 31.6 µM
IC50 [3, 13]: 28.8 µM
Hit Confirmation [3]: confirmed
EC50 [4, 14]: > 50.1 µM
Emax ([4]; individual replicates): 31%
EC50 [4, 15]: > 50.1 µM
Max Effect (T. cruzi) ([4]; individual replicates): 27 and 21 and 30
CC50 at 96 h [5]: > 50.1 µM
Max Effect (Vero) [6]: 7 and 4 and 15 and 11
pEC50 (Vero) [6]: < 4.3
CC50 at 72 h [7, 16]: > 100 µM
Max Effect (HepG2) [8]: 3.76 and 2.85
pEC50 (HepG2) [8]: < 4.0

CC(C)(C)C(=O)NC(C(=O)NO)c1ccc(-c2cc(F)c(F)c(F)c2)cc1 (centres unmarked) [Compound 10o]
Ki [1]: 0.06 µM

COc1ccc(CC(=O)Nc2nc(-c3ccccn3)cs2)c(OC)c1 [Compound 12]
inhibition at 30 µM [2]: 42%
Hill Slope [3, 9]: 2.1
Emax [3, 9]: 84%
IC50 [3, 10]: 20 µM
Hill Slope [3, 11]: 1.0 and 0.9 and 1.3
Maximum Effect [3, 11]: 67% and 73%
Emax [3, 11]: 68%
IC50 [3, 12]: 31.6 µM and 20 µM
IC50 [3, 13]: 25.1 µM
Hit Confirmation [3]: confirmed
EC50 [4, 14]: 7.08 µM
Emax ([4]; individual replicates): 98%
EC50 [4, 15]: 7.94 µM
Max Effect (T. cruzi) ([4]; individual replicates): 100 and 94
pEC50 (T. cruzi) ([4]; individual replicates): 5.2
CC50 at 96 h [5]: 1 µM
Max Effect (Vero) [6]: 46 and 49 and 51
CC50 at 72 h [7, 16]: > 100 µM
Max Effect (HepG2) [8]: 11 and 10
pEC50 (HepG2) [8]: < 4.0

c1ccc(Cc2ccc(OCCn3ccnc3)cc2)cc1 [Compound 13]
inhibition at 30 µM [2]: 41%
Hill Slope [3, 9]: 1.3
Emax [3, 9]: 77%
IC50 [3, 10]: 31.6 µM
Hill Slope [3, 11]: 0.9 and 1.3 and 1.5
Maximum Effect [3, 11]: 74%
Emax [3, 11]: 67%
IC50 [3, 12]: 31.6 µM and 15.8 µM
IC50 [3, 13]: 21.9 µM
Hit Confirmation [3]: confirmed
EC50 [4, 14]: 2.14 µM
EC50 ([4]; 96 h, read-out: EC50 (T. cruzi amastigotes)): 2 µM
Emax ([4]; individual replicates): 94%
EC50 [4, 15]: 1.58 µM
Max Effect (T. cruzi) ([4]; individual replicates): 97 and 84 and 87
pEC50 (T. cruzi) ([4]; individual replicates): 5.6 and 5.7
CC50 at 96 h [5]: 5.01 µM
Selectivity index (fold window Tc/Vero) [6]: 2.3 fold
Max Effect (Vero) [6]: 95 and 94 and 89 and 87
pEC50 (Vero) [6]: 5.3 and 5.4 and 5.2
CC50 at 72 h [7, 16]: 43.7 µM
CC50 at 72 h ([7]; read-out: CC50 (HepG2)): 43 µM
Selectivity window based on the HepG2 data ([8]; T. cruzi vs HepG2): 20 fold
Max Effect (HepG2) [8]: 81 and 82
pEC50 (HepG2) [8]: 4.4
